The target in test [1] is T1, hGIPR (Homo sapiens, UniProt P48546).
T1 construct: expressed in transfected cells; host or cells: CHO
T1 sequence (P48546 22-466): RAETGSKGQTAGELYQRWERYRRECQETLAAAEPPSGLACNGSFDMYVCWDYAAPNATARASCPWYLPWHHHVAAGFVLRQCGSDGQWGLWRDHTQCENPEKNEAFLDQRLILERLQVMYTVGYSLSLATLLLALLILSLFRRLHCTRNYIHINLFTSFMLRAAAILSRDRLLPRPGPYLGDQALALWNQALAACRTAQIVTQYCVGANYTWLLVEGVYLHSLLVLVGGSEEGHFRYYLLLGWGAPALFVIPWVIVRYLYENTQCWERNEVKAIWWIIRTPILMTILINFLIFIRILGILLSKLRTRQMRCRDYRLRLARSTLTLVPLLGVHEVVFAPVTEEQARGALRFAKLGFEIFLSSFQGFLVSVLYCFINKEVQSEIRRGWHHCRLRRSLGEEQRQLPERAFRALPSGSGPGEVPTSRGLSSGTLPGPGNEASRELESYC
In words: hGIPR-mediated cAMP induction assay in CHO cell line. The test is classed as cell-based.
Excerpt: The cAMP in the sample or standard competes with horseradish peroxidase (HRP)-labeled cAMP conjugate for binding sites on the anti-cAMP antibodies. In the absence of cAMP, most of the HRP-cAMP conjugate is bound to the antibody. Increasing concentrations of cAMP competitively decrease the amount of bound conjugate, thus decreasing measured HRP activity.
Assay kit: CatchPoint™ Cyclic-AMP Fluorescent Assay Kit (Molecular Devices, Product # R8088)
Cell lines: CHO hGLP1R, CHO hGIPR
Cell seeding: CHO hGLP1R or CHO hGIPR cells: 10,000 cells/well/100 uL at 37° C. 5% CO2 overnight.
Gently aspirate off media and wash the cells with KRBG Buffer, 100 uL/well.
Incubate the plate for 10 min at room temperature. Then add the KRBG buffer with 3× final concentration of the tested samples (5-foled series diluted from 5,000 nM), 50 uL/well. Incubate the plate at 37° C. 5% CO2 for 30 min.
Add 50 uL of Lysis buffer to each well and put the plate on a shaker for 10 min.
Place 40 uL of samples and analyze in appropriate wells. And test the cAMP concentration in each sample by following the manufacture's instruction.
Detect the fluorescence signal at Ex: 490 nm and Em: 530 nm. Transfer the FI signal to cAMP concentration by the cAMP standard curve. The Dose-response curve and EC50 were obtained by logistic fitting of Origin 8.

In test [2] the target is T2, hGLP-1R (Homo sapiens, UniProt P43220).
T2 construct: expressed in transfected cells; host or cells: CHO
T2 sequence (P43220 24-463): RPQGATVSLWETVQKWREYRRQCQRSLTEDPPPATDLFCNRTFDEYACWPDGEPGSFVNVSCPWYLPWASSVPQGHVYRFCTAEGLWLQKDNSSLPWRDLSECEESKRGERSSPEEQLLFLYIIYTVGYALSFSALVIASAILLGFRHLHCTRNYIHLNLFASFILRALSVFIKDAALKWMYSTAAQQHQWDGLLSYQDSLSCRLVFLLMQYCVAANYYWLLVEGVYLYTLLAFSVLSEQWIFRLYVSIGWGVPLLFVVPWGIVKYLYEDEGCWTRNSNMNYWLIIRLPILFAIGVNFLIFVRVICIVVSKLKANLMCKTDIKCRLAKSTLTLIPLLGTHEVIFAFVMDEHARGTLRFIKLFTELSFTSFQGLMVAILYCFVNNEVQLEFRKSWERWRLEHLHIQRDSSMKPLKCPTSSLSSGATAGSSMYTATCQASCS
Briefly: hGLP-1R-mediated cAMP induction assay in CHO cell line.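 Also: CHO cells expressing human GLP-1R, treated 30 min at 37 °C, intracellular cAMP measured by competitive fluorescent immunoassay and converted via a cAMP standard curve.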 Type of test: cell-based.

Here are results for seven molecules from patent US9453062B2, “Glucose dependent insulinotropic polypeptide analogs, pharmaceutical compositions and use thereof” (Beijing Hanmi Pharmaceutical Co., Ltd., priority 2011, dated 2016).

Like-named read-outs stand apart in the source and are kept apart here. *1 amine or outer side, *2 acyl side, *3 side chain or, on linkers, in order; H or OH if unused. Where a SMILES comes first, the peptide text is derived from it. Where no end group is shown, it is not given here. Side-chain parts run from the residue outwards. [ ]: non-standard residue; d: D form. The star is where a group is joined. γGlu = O=C(O)[C@H](CCC(=O)[*:2])N[*:1]; Palmitoyl = CCCCCCCCCCCCCCCC(=O)*; Aib = CC(C)(N)C(=O)O

Regarding `CCCCCCCCCCCCCCCC(=O)NCCCC[C@H](NC(=O)[C@H](CO)NC(=O)[C@@H]1CCCN1C(=O)[C@@H]1CCCN1C(=O)[C@@H]1CCCN1C(=O)[C@H](C)NC(=O)CNC(=O)[C@H](CO)NC(=O)[C@H](CO)NC(=O)[C@@H]1CCCN1C(=O)CNC(=O)CNC(=O)[C@H](CCCCN)NC(=O)[C@@H](NC(=O)[C@H](CC(C)C)NC(=O)[C@H](Cc1c[nH]c2ccccc12)NC(=O)[C@H](C)NC(=O)[C@@H](NC(=O)[C@H](Cc1ccccc1)NC(=O)[C@H](CCC(=O)O)NC(=O)[C@H](CCCNC(=N)N)NC(=O)[C@@H](NC(=O)[C@H](C)NC(=O)[C@H](CCC(=O)O)NC(=O)[C@H](CCCCN)NC(=O)[C@H](CCC(=O)O)NC(=O)[C@H](CCSC)NC(=O)[C@H](Cc1ccc(O)cc1)NC(=O)[C@@H](NC(=O)[C@H](CO)NC(=O)[C@H](Cc1ccc(O)cc1)NC(=O)[C@H](CC(=O)O)NC(=O)[C@H](CO)NC(=O)[C@@H](NC(=O)[C@H](Cc1ccccc1)NC(=O)[C@@H](NC(=O)CNC(=O)[C@H](CCC(N)=O)NC(=O)C(C)(C)NC(=O)[C@@H](N)Cc1ccc(O)cc1)[C@@H](C)O)[C@@H](C)O)[C@@H](C)CC)C(C)C)[C@@H](C)CC)C(C)C)C(N)=O` [Compound 120] (H-Y[Aib]QGTFTSDYSIYMEKEAVREFIAWLVKGGPSSGAPPPSK(Palmitoyl)-NH2), the EC50 – broadly, the concentration that produces a half-maximal response – in test [1] (Table 3, CHO hGIPR cells) amounted to 0.039 nM; in test [2] (Table 3, CHO hGLP1R cells), 0.253 nM. In addition, in test [1] (Table 3, against native GIP), the “GIP Receptor Relative Potency” value is given as 294.9. The “GLP-1 Receptor Relative Potency” value in test [2] (Table 3, against native GLP-1) is listed as 586.6.

As to `CC[C@H](C)[C@H](NC(=O)[C@H](Cc1ccccc1)NC(=O)[C@H](CCC(=O)O)NC(=O)[C@H](CCCNC(=N)N)NC(=O)[C@@H](NC(=O)[C@H](C)NC(=O)[C@H](CCC(=O)O)NC(=O)[C@H](CCCCN)NC(=O)[C@H](CCC(=O)O)NC(=O)[C@H](CCSC)NC(=O)[C@H](Cc1ccc(O)cc1)NC(=O)[C@@H](NC(=O)[C@H](CO)NC(=O)[C@H](Cc1ccc(O)cc1)NC(=O)[C@H](CC(=O)O)NC(=O)[C@H](CO)NC(=O)[C@@H](NC(=O)[C@H](Cc1ccccc1)NC(=O)[C@@H](NC(=O)CNC(=O)[C@H](CCC(=O)O)NC(=O)C(C)(C)NC(=O)[C@@H](N)Cc1ccc(O)cc1)[C@@H](C)O)[C@@H](C)O)[C@@H](C)CC)C(C)C)C(=O)N[C@@H](C)C(=O)N[C@@H](Cc1c[nH]c2ccccc12)C(=O)N[C@@H](CC(C)C)C(=O)N[C@H](C(=O)N[C@@H](CCCCN)C(=O)NCC(=O)NCC(=O)N1CCC[C@H]1C(=O)N[C@@H](CO)C(=O)N[C@@H](CO)C(=O)NCC(=O)N[C@@H](C)C(=O)N1CCC[C@H]1C(=O)N1CCC[C@H]1C(=O)N1CCC[C@H]1C(=O)N[C@@H](CO)C(=O)N[C@@H](CCCCN)C(N)=O)C(C)C` [Compound 066], in test [1] (Table 3, against native GIP), the “GIP Receptor Relative Potency” value was 50. In test [2] (Table 3, CHO hGLP1R cells), the EC50 came out at 2.5 nM. The “GLP-1 Receptor Relative Potency” value in test [2] (Table 3, against native GLP-1) amounted to 43.7.

Consider `CCCCCCCCCCCCCCCC(=O)N[C@@H](CCC(=O)NCCCC[C@H](NC(=O)[C@@H](NC(=O)[C@H](C)NC(=O)[C@H](CCC(=O)O)NC(=O)[C@H](CCCCN)NC(=O)[C@H](CCC(=O)O)NC(=O)[C@H](CCSC)NC(=O)[C@H](Cc1ccc(O)cc1)NC(=O)[C@@H](NC(=O)[C@H](CO)NC(=O)[C@H](Cc1ccc(O)cc1)NC(=O)[C@H](CC(=O)O)NC(=O)[C@H](CO)NC(=O)[C@@H](NC(=O)[C@H](Cc1ccccc1)NC(=O)[C@@H](NC(=O)CNC(=O)[C@H](CCC(=O)O)NC(=O)C(C)(C)NC(=O)[C@@H](N)Cc1ccc(O)cc1)[C@@H](C)O)[C@@H](C)O)[C@@H](C)CC)C(C)C)C(=O)N[C@@H](CCC(=O)O)C(=O)N[C@@H](Cc1ccccc1)C(=O)N[C@H](C(=O)N[C@@H](C)C(=O)N[C@@H](Cc1c[nH]c2ccccc12)C(=O)N[C@@H](CC(C)C)C(=O)N[C@H](C(=O)N[C@@H](CCCCN)C(=O)NCC(=O)NCC(=O)N1CCC[C@H]1C(=O)N[C@@H](CO)C(=O)N[C@@H](CO)C(=O)NCC(=O)N[C@@H](C)C(=O)N1CCC[C@H]1C(=O)N1CCC[C@H]1C(=O)N1CCC[C@H]1C(=O)N[C@@H](CO)C(N)=O)C(C)C)[C@@H](C)CC)C(=O)O` [Compound 092] (H-Y[Aib]EGTFTSDYSIYMEKEAVK([γGlu-Palmitoyl])EFIAWLVKGGPSSGAPPPS-NH2), for which the half-maximal effective concentration (EC50) in test [1] (Table 3, CHO hGIPR cells) is 0.15 nM; in test [2] (Table 3, CHO hGLP1R cells), 0.39 nM. Further, the “GIP Receptor Relative Potency” value in test [1] (Table 3, against native GIP) came to 26.6. The “GLP-1 Receptor Relative Potency” value in test [2] (Table 3, against native GLP-1) was 256.4.

Consider `CC[C@H](C)[C@H](NC(=O)[C@H](Cc1ccccc1)NC(=O)[C@H](CCC(=O)O)NC(=O)[C@H](CCCNC(=N)N)NC(=O)[C@@H](NC(=O)[C@H](C)NC(=O)[C@H](CCC(=O)O)NC(=O)[C@H](CCCCN)NC(=O)[C@H](CCC(=O)O)NC(=O)[C@H](CCSC)NC(=O)[C@H](Cc1ccc(O)cc1)NC(=O)[C@@H](NC(=O)[C@H](CO)NC(=O)[C@H](Cc1ccc(O)cc1)NC(=O)[C@H](CC(=O)O)NC(=O)[C@H](CO)NC(=O)[C@@H](NC(=O)[C@H](Cc1ccccc1)NC(=O)[C@@H](NC(=O)CNC(=O)[C@H](CCC(=O)O)NC(=O)C(C)(C)NC(=O)[C@@H](N)Cc1ccc(O)cc1)[C@@H](C)O)[C@@H](C)O)[C@@H](C)CC)C(C)C)C(=O)N[C@@H](C)C(=O)N[C@@H](Cc1c[nH]c2ccccc12)C(=O)N[C@@H](CC(C)C)C(=O)N[C@H](C(=O)N[C@@H](CCCCN)C(=O)NCC(=O)N[C@@H](CCCCN)C(=O)N[C@@H](CCCCN)C(=O)N[C@@H](CCCCN)C(=O)N[C@@H](CCCCN)C(=O)N[C@@H](CCCCN)C(N)=O)C(C)C` [Compound 060] (H-Y[Aib]EGTFTSDYSIYMEKEAVREFIAWLVKGKKKKK-NH2; N-terminus assumed), for which, in test [1] (Table 3, against native GIP), the “GIP Receptor Relative Potency” value amounted to 8.4. The “GLP-1 Receptor Relative Potency” value in test [2] (Table 3, against native GLP-1) stood at 36.8.

For the molecule `CC[C@H](C)[C@H](NC(=O)[C@H](Cc1ccccc1)NC(=O)[C@H](CCC(=O)O)NC(=O)[C@H](CCCNC(=N)N)NC(=O)[C@@H](NC(=O)[C@H](C)NC(=O)[C@H](CCC(=O)O)NC(=O)[C@H](CCCCN)NC(=O)[C@H](CCC(=O)O)NC(=O)[C@H](CCSC)NC(=O)[C@H](Cc1ccc(O)cc1)NC(=O)[C@@H](NC(=O)[C@H](CO)NC(=O)[C@H](Cc1ccc(O)cc1)NC(=O)[C@H](CC(=O)O)NC(=O)[C@H](CO)NC(=O)[C@@H](NC(=O)[C@H](Cc1ccccc1)NC(=O)[C@@H](NC(=O)CNC(=O)[C@H](CCC(=O)O)NC(=O)C(C)(C)NC(=O)[C@@H](N)Cc1ccc(O)cc1)[C@@H](C)O)[C@@H](C)O)[C@@H](C)CC)C(C)C)C(=O)N[C@@H](C)C(=O)N[C@@H](Cc1c[nH]c2ccccc12)C(=O)N[C@@H](CC(C)C)C(=O)N[C@H](C(=O)N[C@@H](CCCCN)C(=O)NCC(N)=O)C(C)C` [Compounds 023] (H-Y[Aib]EGTFTSDYSIYMEKEAVREFIAWLVKG-NH2), the concentration giving a half-maximal response (EC50) in test [1] (Table 1, CHO/hGIPR cells, read-out: GIPR EC50) was found to be 0.088 nM; in test [2] (Table 1, CHO/hGLP-1R cells, read-out: GLP-1R EC50), 1.28 nM. Also, the “GIPR Relative Potency” value in test [1] (Table 1, against native GIP) was 106.8%. In addition, in test [1] (Table 3, against native GIP), the “GIP Receptor Relative Potency” value is recorded as 106.8. Moreover, in test [2] (Table 1, against native GLP-1), the “GLP-1R Relative Potency” value was 75%. In test [2] (Table 3, against native GLP-1), the “GLP-1 Receptor Relative Potency” value stood at 75.

For “Y[Aib]EGTFTSDYSIYMEKEAVREFIAWLVKGGPSSGAPPPSKKKKKK(Palmitoyl)-NH2 [Compound 078]”, the EC50 turned out to be 0.019 nM in test [1] (Table 3, CHO hGIPR cells) and 0.145 nM in test [2] (Table 3, CHO hGLP1R cells). The “GIP Receptor Relative Potency” value in test [1] (Table 3, against native GIP) is recorded as 352.6. In addition, the “GLP-1 Receptor Relative Potency” value in test [2] (Table 3, against native GLP-1) is on record as 754.

Turning to `CC[C@H](C)[C@H](NC(=O)[C@H](Cc1ccccc1)NC(=O)[C@H](CCC(=O)O)NC(=O)[C@H](CCCNC(=N)N)NC(=O)[C@@H](NC(=O)[C@H](C)NC(=O)[C@H](CCC(=O)O)NC(=O)[C@H](CCCCN)NC(=O)[C@H](CCC(=O)O)NC(=O)[C@H](CCSC)NC(=O)[C@H](Cc1ccc(O)cc1)NC(=O)[C@H](CCC(=O)O)NC(=O)[C@H](CO)NC(=O)[C@H](Cc1ccc(O)cc1)NC(=O)[C@H](CC(=O)O)NC(=O)[C@H](CO)NC(=O)[C@@H](NC(=O)[C@H](Cc1ccccc1)NC(=O)[C@@H](NC(=O)CNC(=O)[C@H](CCC(=O)O)NC(=O)C(C)(C)NC(=O)[C@@H](N)Cc1ccc(O)cc1)[C@@H](C)O)[C@@H](C)O)C(C)C)C(=O)N[C@@H](C)C(=O)N[C@@H](Cc1c[nH]c2ccccc12)C(=O)N[C@@H](CC(C)C)C(=O)N[C@H](C(=O)N[C@@H](CCCCN)C(=O)NCC(N)=O)C(C)C` [Compound 052-1] (H-Y[Aib]EGTFTSDYSEYMEKEAVREFIAWLVKG-NH2; N-terminus assumed), the EC50 in test [1] (Table 3, CHO hGIPR cells) amounted to 0.57 nM; in test [2] (Table 3, CHO hGLP1R cells), 2.5 nM. For the same molecule, the “GIP Receptor Relative Potency” value in test [1] (Table 3, against native GIP) stood at 36.8.
